Assay results as given in ChEMBL document CHEMBL5634123, “Design and synthesis of 1H-benzo[d]imidazole selective HDAC6 inhibitors with potential therapy for multiple myeloma” (Eur J Med Chem, 2023).
Activity calls are given as the source filed them. The rule behind the calls is not given here.

Legend:
[1] = test system: RPMI-8226; test: Induction of cell cycle arrest at G1 phase in human RPMI-8226 cells at 0.1 uM incubated for 24 hrs by PI staining based flow cytometry (reference value: 19.2 %); assay type: functional
[2] = test system: SGC-7901; test: Cytotoxicity against human SGC-7901 cells assessed as inhibition of cell viability incubated for 24 hrs by CCK8 assay; assay type: functional, cell-based; settings: SGC-7901, 24 h
[3] = test system: RPMI-8226; test: Induction of cell cycle arrest at S phase in human RPMI-8226 cells at 0.1 uM incubated for 24 hrs by PI staining based flow cytometry (reference value: 58.5 %); assay type: functional
[4] = Volume of distribution at steady state in mouse at 1 mg/kg, iv; assay type: ADME, organism-based; settings: in vivo, read-out: Vdss
[5] = Toxicity in Balb/c nude mouse xenografted with human RPMI-8226 cells assessed as adverse effect on serum AST level at 10 to 40 mg/kg, po qd for 21 days administered consecutively; assay type: organism-based; settings: in vivo, 504 h, dose 10-40 mg/kg, time 21 day
[6] = test system: RPMI-8226; test: Induction of cell cycle arrest at S phase in human RPMI-8226 cells at 0.5 uM incubated for 24 hrs by PI staining based flow cytometry (reference value: 58.5 %); assay type: functional
[7] = Toxicity in Balb/c nude mouse xenografted with human RPMI-8226 cells assessed as adverse effect on kidney at 10 to 40 mg/kg, po qd for 21 days administered consecutively by H and E staining based analysis; assay type: organism-based; settings: in vivo, 504 h, dose 10-40 mg/kg, time 21 day
[8] = test system: RPMI-8226; test: cells; settings: Homo sapiens, RPMI-8226, 24 h
[9] = test system: RPMI-8226; test: Induction of apoptosis in human RPMI-8226 cells assessed as early apoptotic cells at 2.5 uM incubated for 24 hrs by Annexin V-FITC/PI staining based flow cytometry (reference value: 5.34 %); assay type: functional
[10] = test system: RPMI-8226; test: Induction of apoptosis in human RPMI-8226 cells assessed as early apoptotic cells at 0.1 uM incubated for 24 hrs by Annexin V-FITC/PI staining based flow cytometry (reference value: 5.34 %); assay type: functional
[11] = test system: RPMI-8226; test: Induction of apoptosis in human RPMI-8226 cells assessed as increase in Bax expression at 0.1 to 2.5 uM incubated for 24 hrs by Western blot analysis; assay type: functional, cell-based; settings: dose 0.1-2.5 µM
[12] = target: T1, Histone deacetylase 8 (Homo sapiens, UniProt Q9BY41); test: Inhibition of HDAC8 (unknown origin) preincubated for 10 mins followed by substrate addition by fluorescence based assay
T1 sequence (Q9BY41 whole entry): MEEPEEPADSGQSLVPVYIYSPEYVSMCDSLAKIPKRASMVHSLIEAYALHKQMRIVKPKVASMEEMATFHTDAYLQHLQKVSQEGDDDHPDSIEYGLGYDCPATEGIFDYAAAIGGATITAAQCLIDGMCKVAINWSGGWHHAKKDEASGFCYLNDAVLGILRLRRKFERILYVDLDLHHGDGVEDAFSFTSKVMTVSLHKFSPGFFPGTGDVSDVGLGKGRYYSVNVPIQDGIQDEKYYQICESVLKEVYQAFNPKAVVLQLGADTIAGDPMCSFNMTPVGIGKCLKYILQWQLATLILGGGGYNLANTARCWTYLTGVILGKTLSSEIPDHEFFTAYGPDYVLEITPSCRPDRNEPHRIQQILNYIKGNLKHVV

[13] = test system: RPMI-8226; test: Induction of cell cycle arrest at G2 phase in human RPMI-8226 cells at 0.1 uM incubated for 24 hrs by PI staining based flow cytometry (reference value: 18.3 %); assay type: functional
[14] = target: Histone deacetylase 2 (Homo sapiens, UniProt Q92769); test: Inhibition of HDAC2 (unknown origin) preincubated for 10 mins followed by substrate addition by fluorescence based assay
[15] = target: Histone deacetylase 3 (Homo sapiens, UniProt O15379); test: Inhibition of HDAC3 (unknown origin) preincubated for 10 mins followed by substrate addition by fluorescence based assay
[16] = target: T2, Protein deacetylase HDAC6 (Homo sapiens, UniProt Q9UBN7); test: Inhibition of HDAC6 (unknown origin) preincubated for 10 mins followed by substrate addition measured for 1 hr by fluorescence based assay
T2 sequence (Q9UBN7 whole entry): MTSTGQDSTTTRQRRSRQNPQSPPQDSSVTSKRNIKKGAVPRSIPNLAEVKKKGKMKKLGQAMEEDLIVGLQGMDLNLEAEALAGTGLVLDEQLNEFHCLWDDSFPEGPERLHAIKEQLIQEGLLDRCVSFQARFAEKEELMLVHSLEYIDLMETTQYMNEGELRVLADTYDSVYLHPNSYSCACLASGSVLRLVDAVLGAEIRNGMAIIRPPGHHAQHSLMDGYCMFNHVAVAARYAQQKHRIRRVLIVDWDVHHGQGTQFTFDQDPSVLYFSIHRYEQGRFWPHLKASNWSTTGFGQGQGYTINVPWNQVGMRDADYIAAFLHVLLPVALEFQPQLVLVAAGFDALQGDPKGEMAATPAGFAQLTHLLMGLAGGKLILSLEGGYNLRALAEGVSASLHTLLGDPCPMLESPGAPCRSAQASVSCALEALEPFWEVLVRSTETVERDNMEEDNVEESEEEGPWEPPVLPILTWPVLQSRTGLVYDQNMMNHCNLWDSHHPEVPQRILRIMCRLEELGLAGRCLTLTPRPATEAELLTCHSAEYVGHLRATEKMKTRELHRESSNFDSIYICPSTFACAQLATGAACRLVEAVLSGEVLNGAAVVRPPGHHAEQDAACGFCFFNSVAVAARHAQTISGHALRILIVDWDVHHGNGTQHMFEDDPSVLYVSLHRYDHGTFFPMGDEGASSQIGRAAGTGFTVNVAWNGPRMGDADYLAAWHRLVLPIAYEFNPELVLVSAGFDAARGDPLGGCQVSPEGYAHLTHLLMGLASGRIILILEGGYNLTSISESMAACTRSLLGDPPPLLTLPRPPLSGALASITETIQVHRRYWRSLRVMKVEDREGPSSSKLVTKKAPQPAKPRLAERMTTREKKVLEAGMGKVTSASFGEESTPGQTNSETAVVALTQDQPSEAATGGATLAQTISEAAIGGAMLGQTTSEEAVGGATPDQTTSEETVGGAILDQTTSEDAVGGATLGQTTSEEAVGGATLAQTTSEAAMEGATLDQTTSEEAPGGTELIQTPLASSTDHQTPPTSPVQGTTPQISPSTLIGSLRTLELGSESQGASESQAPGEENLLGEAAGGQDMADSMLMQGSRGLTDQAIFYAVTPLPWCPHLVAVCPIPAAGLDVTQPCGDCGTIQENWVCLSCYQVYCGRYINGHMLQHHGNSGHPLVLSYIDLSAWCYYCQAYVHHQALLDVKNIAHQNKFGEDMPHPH

[17] = target: Histone deacetylase 9 (Homo sapiens, UniProt Q9UKV0); test: Inhibition of HDAC9 (unknown origin) preincubated for 10 mins followed by substrate addition by fluorescence based assay
[18] = target: T3, Protein deacetylase HDAC6 (Homo sapiens) (UniProt Q9UBN7); test: Inhibition of HDAC6 in human RPMI-8226 cells assessed as increase in Ac-H3 expression at 2.5 uM incubated for 24 hrs by Western blot analysis; assay type: cell-based
T3 sequence (whole entry): T2 sequence (Q9UBN7 whole entry)

Sequence of Histone deacetylase 3 (O15379 whole entry): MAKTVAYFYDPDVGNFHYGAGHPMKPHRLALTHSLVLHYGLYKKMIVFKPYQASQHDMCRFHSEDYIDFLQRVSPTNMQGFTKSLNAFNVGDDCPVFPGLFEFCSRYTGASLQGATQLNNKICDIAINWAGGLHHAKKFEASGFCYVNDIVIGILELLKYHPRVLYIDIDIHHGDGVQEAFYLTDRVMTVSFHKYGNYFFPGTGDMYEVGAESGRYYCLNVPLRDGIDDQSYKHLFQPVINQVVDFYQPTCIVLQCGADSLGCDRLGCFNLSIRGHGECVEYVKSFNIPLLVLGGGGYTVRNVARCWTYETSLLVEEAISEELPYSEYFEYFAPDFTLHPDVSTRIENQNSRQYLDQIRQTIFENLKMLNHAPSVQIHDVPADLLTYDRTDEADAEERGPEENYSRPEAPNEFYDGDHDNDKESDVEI
Sequence of Histone deacetylase 2 (Q92769 whole entry): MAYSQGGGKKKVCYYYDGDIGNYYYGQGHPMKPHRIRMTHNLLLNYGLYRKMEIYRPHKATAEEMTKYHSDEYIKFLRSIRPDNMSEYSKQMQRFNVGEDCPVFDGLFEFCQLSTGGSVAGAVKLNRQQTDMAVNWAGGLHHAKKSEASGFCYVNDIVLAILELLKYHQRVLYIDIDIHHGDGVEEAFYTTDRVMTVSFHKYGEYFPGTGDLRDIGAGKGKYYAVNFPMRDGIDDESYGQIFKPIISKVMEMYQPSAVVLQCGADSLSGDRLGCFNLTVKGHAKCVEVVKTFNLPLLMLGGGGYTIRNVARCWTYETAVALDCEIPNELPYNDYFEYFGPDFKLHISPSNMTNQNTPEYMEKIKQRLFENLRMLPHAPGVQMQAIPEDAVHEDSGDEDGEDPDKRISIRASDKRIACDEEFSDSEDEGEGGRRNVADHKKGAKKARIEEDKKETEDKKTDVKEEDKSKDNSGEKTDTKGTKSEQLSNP
Sequence of Histone deacetylase 9 (Q9UKV0 whole entry): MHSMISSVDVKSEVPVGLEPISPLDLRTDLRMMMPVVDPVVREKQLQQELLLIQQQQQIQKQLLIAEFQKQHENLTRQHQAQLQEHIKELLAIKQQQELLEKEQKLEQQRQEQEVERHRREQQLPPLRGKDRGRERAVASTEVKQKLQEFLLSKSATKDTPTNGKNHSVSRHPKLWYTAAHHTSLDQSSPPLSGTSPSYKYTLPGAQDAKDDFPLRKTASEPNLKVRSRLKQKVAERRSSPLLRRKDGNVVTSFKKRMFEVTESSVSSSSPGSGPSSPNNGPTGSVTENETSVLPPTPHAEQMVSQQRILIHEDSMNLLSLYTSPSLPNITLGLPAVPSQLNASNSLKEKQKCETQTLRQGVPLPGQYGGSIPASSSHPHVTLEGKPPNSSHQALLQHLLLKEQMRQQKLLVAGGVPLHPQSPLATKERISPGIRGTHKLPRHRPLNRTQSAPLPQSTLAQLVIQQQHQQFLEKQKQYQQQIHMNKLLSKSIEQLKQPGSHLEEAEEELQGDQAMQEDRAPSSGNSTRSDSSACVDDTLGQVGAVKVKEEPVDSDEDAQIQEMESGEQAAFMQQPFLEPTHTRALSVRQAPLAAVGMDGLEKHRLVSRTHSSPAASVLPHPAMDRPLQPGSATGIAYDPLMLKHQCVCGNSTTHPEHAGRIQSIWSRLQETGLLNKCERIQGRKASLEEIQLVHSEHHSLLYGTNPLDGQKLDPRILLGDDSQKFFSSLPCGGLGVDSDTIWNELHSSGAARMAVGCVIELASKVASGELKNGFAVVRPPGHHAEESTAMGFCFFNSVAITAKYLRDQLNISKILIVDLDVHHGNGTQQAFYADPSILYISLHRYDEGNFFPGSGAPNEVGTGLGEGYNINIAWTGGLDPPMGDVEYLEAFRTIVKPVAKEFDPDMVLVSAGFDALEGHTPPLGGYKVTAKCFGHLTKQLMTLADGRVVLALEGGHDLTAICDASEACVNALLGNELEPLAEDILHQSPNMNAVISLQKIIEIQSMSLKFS

Vd [4]: 2.29 L/kg
IC50 [8]: 528 nM
IC50 [12]: 867 nM
IC50 [14]: 1790 nM
IC50 [15]: 1840 nM
IC50 [16]: 4.63 nM
IC50 [17]: 1880 nM
inhibition [18]: Active
Structure (SMILES): Cn1c([C@@H](Cc2ccccc2)NCc2ccccc2)nc2cc(C(=O)NO)ccc21
Activity [1]: 18.2%
IC50 [2]: > 50000 nM
Activity [3]: 54%
Activity [5]: Non-Toxic
Activity [6]: 43.3%
Activity [7]: Non-Toxic
Activity [9]: 18.97%
Activity [10]: 12.79%
Activity [11]: Active
Activity [13]: 21.1%
